# Measured values taken from paper PMC7918878 (Molecules, 2021).
# “And” between values parts separate entries of the source, which are not always exact repeats. Equal entries are not always repeated. Where two headings read alike, the source gives them in different places.
# What was measured:
# [1] = biological target: AChE isolated from electric eel (EeAChE) (Electrophorus electricus, UniProt O42275); experiment: biochemical; conditions: for IC50: mean ± SD, n = three independent experiments, ATCh 40 µM; for Selectivity BuChE/AChE: SI = ratio of IC50 for BuChE/IC50 for AChE, >1 means stronger inhibition of AChE
# AChE isolated from electric eel (EeAChE), sequence (O42275 24-633): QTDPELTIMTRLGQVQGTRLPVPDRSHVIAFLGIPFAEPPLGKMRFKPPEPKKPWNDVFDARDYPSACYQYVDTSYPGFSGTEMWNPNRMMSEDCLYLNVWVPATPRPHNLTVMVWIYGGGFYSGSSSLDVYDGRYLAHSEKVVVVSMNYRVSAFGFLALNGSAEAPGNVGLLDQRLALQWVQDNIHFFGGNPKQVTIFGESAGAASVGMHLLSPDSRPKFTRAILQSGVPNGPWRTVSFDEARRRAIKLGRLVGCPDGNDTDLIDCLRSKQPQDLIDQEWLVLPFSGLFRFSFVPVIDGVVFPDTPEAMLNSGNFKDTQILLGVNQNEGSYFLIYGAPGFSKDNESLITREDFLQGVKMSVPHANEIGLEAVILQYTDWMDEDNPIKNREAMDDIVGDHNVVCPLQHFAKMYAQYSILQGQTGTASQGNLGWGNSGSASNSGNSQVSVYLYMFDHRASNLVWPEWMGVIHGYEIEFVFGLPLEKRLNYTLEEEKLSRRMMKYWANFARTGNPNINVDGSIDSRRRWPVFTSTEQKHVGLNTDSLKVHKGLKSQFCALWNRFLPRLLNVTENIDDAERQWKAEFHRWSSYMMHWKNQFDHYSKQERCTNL
# HepG2 cells = conditions: cited from earlier work
# [2] = biological target: BuChE obtained from equine serum (EqBuChE) (Equus caballus, UniProt P81908); experiment: biochemical; format: biochemical; conditions: for IC50: mean ± SD, n = three independent experiments, BTCh 40 µM; for fold less active against BuChE than 2d: compared with 2-chlorobenzylidene analogue 2d
# BuChE obtained from equine serum (EqBuChE), sequence (P81908 whole entry): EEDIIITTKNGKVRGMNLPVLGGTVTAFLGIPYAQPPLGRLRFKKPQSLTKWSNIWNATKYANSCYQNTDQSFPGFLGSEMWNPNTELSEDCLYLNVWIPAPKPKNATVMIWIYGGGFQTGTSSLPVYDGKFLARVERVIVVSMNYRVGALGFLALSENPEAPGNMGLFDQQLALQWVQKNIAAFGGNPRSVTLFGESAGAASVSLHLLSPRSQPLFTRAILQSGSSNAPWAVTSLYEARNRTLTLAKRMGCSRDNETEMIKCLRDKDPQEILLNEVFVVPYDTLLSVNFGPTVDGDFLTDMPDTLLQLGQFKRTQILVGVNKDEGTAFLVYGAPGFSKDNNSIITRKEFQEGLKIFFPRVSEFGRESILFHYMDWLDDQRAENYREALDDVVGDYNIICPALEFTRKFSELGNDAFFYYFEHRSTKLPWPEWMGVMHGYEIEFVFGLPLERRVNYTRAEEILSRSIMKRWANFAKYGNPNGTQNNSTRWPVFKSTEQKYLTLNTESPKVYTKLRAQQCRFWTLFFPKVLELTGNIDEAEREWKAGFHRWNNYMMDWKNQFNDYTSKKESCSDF
# eeAChE = eeAChE (Electrophorus electricus, UniProt O42275); experiment: Type of inhibition, Lineweaver–Burk plot and nonlinear regression; format: biochemical
# eeAChE, sequence (O42275 24-633): as the sequence (O42275 24-633) above
# Procedure: The type of inhibition could be distinguished using a Lineweaver–Burk plot and corresponding comparison of two kinetic parameters: Michaelis constant (KM) and maximum velocity (Vm) of uninhibited and inhibited reaction. […].
# . The dependence absorbance vs. time was observed and the reaction rate was calculated. All measurements were carried out in duplicate and the average values of reaction rate were used for the construction of the Lineweaver–Burk plot. Furthermore, the dependencies vs. concentration of ATCh in absence and presence of inhibitor 2l were analyzed by nonlinear regression using GraphPad Prism 9.0.1 for Windows (GraphPad Software, San Diego, CA, USA, www.graphpad.com). From obtained equations of regression curves in the Lineweaver–Burk plot, the values of Michaelis constant (KM) and maximum velocity (Vm) were calculated. […]. Based on all obtained results, the type of inhibition was identified.
# [3] = nonlinear regression, mixed model inhibition
SMILES,IC50 [1] [µM],IC50 (HepG2 cells) [µM],IC50 ([2]; read-out: IC50 BuChE),Selectivity BuChE/AChE [1],IC50 ([2]; IC50 BuChE) [µM],fold less active against BuChE than 2d [2],"Type of inhibition (eeAChE; Lineweaver–Burk plot, KM and Vm, ATCh 20–80 µM, inhibitor 10–40 µM)",Ki (eeAChE; [3]) [µM],alpha (eeAChE; [3]),"improved activity against BuChE ([2]; fold, 2k vs. 2o) [×]"
O=C(N/N=C/c1ccccc1)c1ccc(C(F)(F)F)cc1 [2a],75.9 ± 1.6,> 100,651 ± 31.5 µM,,,,,,,
O=C(N/N=C/c1ccc(Cl)cc1)c1ccc(C(F)(F)F)cc1 [2b],88.5 ± 1.4,> 100,254 ± 3.3 µM,2.9,,,,,,
O=C(N/N=C/c1cccc(Cl)c1)c1ccc(C(F)(F)F)cc1 [2c],77.1 ± 0.03,> 100,261 ± 40.7 µM,3.4,,,,,,
O=C(N/N=C/c1ccccc1Cl)c1ccc(C(F)(F)F)cc1 [2d],128 ± 10,> 100,,0.5,63.6 ± 0.9,,,,,
O=C(N/N=C/c1ccc(O)cc1)c1ccc(C(F)(F)F)cc1 [2e],102 ± 3.8,> 100,229 ± 14.5 µM,2.3,,,,,,
O=C(N/N=C/c1cccc(O)c1)c1ccc(C(F)(F)F)cc1 [2f],70.4 ± 2.8,> 100,250 ± 7.5 µM,3.5,,,,,,
O=C(N/N=C/c1ccccc1O)c1ccc(C(F)(F)F)cc1 [2g],47.4 ± 1.8,> 100,881.1 ± 8 µM,18.6,,,,,,
O=C(N/N=C/c1cc(Cl)ccc1O)c1ccc(C(F)(F)F)cc1 [2h],138 ± 3,> 100,287 ± 12.6 µM,2.1,,,,,,
Cc1ccc(/C=N/NC(=O)c2ccc(C(F)(F)F)cc2)cc1 [2i],91.4 ± 6.2,> 100,253 ± 9.6 µM,2.8,,,,,,
COc1ccc(/C=N/NC(=O)c2ccc(C(F)(F)F)cc2)cc1 [2j],109 ± 2.2,> 100,279 ± 2.9 µM,2.6,,,,,,
O=C(N/N=C/c1ccc(Br)cc1)c1ccc(C(F)(F)F)cc1 [2k],62.1 ± 0.02,> 100,342 ± 11.3 µM,5.5,,approximately 3 fold,,,,
"O=C(NN=Cc1ccc(C(F)(F)F)cc1)c1ccc(C(F)(F)F)cc1 [2l, 4-(Trifluoromethyl)-N’-[4-(trifluoromethyl)benzylidene]benzohydrazide]",46.8 ± 2.1,> 100,175 ± 8.3 µM,3.7,,approximately 3 fold,mixed type of inhibition,54.6,1.28,
O=C(N/N=C/c1ccc([N+](=O)[O-])cc1)c1ccc(C(F)(F)F)cc1 [2m],60 ± 0.4,> 100,190.6 ± 1.1 µM,3.2,,,,,,
"O=C(NN=Cc1cccc(Br)c1)c1ccc(C(F)(F)F)cc1 [2n, N’-(3-Bromobenzylidene)-4-(trifluoromethyl)benzohydrazide]",96.9 ± 1.3,,166.3 ± 0.8 µM,1.7,,,,,,
"O=C(NN=Cc1ccccc1Br)c1ccc(C(F)(F)F)cc1 [2o, N’-(2-Bromobenzylidene)-4-(trifluoromethyl)benzohydrazide]",62.6 ± 3.2,,54.2 ± 0.1 µM,0.9,,,,,,6.3
"O=C(NN=Cc1cccc(C(F)(F)F)c1)c1ccc(C(F)(F)F)cc1 [2p, 4-(Trifluoromethyl)-N’-[3-(trifluoromethyl)benzylidene]benzohydrazide]",49.9 ± 1.4,,63.6 ± 2.8 µM,1.3,,,,,,
"O=C(NN=Cc1ccccc1C(F)(F)F)c1ccc(C(F)(F)F)cc1 [2q, 4-(Trifluoromethyl)-N’-[2-(trifluoromethyl)benzylidene]benzohydrazide]",50 ± 1.6,,19.1 ± 0.5 µM,0.4,,,,,,
"O=C(NN=Cc1cccc([N+](=O)[O-])c1)c1ccc(C(F)(F)F)cc1 [2r, N’-(3-Nitrobenzylidene)-4-(trifluoromethyl)benzohydrazide]",81.3 ± 2.6,,133 ± 10.2 µM,1.6,,,,,,
"O=C(NN=Cc1ccccc1[N+](=O)[O-])c1ccc(C(F)(F)F)cc1 [2s, N’-(2-Nitrobenzylidene)-4-(trifluoromethyl)benzohydrazide]",59.7 ± 5.8,,93.1 ± 4.9 µM,1.6,,,,,,
"O=C(NN=Cc1ccc(C(F)(F)F)cc1)c1ccccc1 [2t, N’-[4-(Trifluoromethyl)benzylidene]benzohydrazide]",62.9 ± 0.8,,189.8 ± 1.7 µM,3.0,,,,,,
"Cc1ccc(C(=O)NN=Cc2ccc(C(F)(F)F)cc2)cc1 [2u, 4-Methyl-N’-[4-(trifluoromethyl)benzylidene]benzohydrazide]",75.3 ± 1.5,,245 ± 7 µM,3.3,,,,,,
CC(C)=NNC(=O)c1ccc(C(F)(F)F)cc1 [3a],69.7 ± 5.2,> 100,424 µM,6.1,,,,,,
O=C(NN=C1CCCC1)c1ccc(C(F)(F)F)cc1 [3b],69.2 ± 1,> 100,200 ± 13.2 µM,2.9,,,,,,
O=C(NN=C1CCCCC1)c1ccc(C(F)(F)F)cc1 [3c],61.2 ± 1.3,> 100,74.7 ± 2.7 µM,1.2,,,,,,
CC12CCC(CC1=NNC(=O)c1ccc(C(F)(F)F)cc1)C2(C)C (centres unmarked) [3d],59.3 ± 1.8,> 100,57 µM and 57.2 µM,1.0,,,,,,
"NNC(=O)c1ccc(C(F)(F)F)cc1 [compound 1, 4-(Trifluoromethyl)benzohydrazide]",,> 100,,,,,,,,
